Values of other authors in patent publication US7446204B2, “Amino substituted aryloxybenzylpiperidine derivatives” (H. Lundbeck A/S, priority 2004, dated 2008).
Like-named read-outs stand apart in the source and are kept apart here.

Key:
MCH1 receptor [1] = target: T1, MCH1 receptor (Rattus norvegicus, UniProt P97639); details: rat forced-swim; Borowsky et al., Nature Medicine 2002
T1 construct: host or cells: living rats (endogenous receptor)

MCH1 receptor [2] = target: T1, MCH1 receptor; details: rat social interaction; Borowsky et al., Nature Medicine 2002
MCH1 receptor [3] = target: T2, MCH1 receptor (Cavia porcellus, UniProt H0VKT7); details: guinea pig maternal-separation vocalization; Borowsky et al., Nature Medicine 2002
T2 construct: host or cells: living guinea pigs (endogenous receptor)
T2 sequence (H0VKT7 1-355): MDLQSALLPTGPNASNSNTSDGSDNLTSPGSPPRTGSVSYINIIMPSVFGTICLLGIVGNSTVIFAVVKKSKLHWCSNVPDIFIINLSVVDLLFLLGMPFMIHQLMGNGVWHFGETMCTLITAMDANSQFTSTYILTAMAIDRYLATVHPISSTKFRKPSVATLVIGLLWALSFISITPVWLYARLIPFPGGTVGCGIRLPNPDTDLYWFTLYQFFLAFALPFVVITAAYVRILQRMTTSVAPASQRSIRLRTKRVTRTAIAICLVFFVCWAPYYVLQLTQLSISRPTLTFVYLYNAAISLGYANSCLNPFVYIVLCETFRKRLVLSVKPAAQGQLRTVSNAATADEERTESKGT

T1 sequence (P97639 whole entry): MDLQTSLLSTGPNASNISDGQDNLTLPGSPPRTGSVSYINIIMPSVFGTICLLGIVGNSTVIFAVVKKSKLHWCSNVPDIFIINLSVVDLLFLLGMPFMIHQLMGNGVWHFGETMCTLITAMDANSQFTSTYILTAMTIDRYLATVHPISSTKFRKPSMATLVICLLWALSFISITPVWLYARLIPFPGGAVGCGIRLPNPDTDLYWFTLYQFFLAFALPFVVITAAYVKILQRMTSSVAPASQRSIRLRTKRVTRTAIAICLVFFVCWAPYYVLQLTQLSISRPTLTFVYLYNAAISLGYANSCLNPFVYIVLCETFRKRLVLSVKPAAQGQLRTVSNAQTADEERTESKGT

In the case of `COCC1=C(C(=O)OC)[C@H](c2ccc(F)c(F)c2)N(C(=O)NCCCN2CCC(c3cccc(NC(C)=O)c3)CC2)C(=O)N1` [SNAP-7941], the “profile in behavioral model of depression and/or anxiety” value (“profile in behavioral model” for short) (MCH1 receptor [1]) is listed as “profile similar to clinically used anti-depressants and anxiolytics”, the “profile in behavioral model” value (MCH1 receptor [2]) is listed as “profile similar to clinically used anti-depressants and anxiolytics” and the “profile in behavioral model” value (MCH1 receptor [3]) is listed as “profile similar to clinically used anti-depressants and anxiolytics”.
